The values that follow come from ChEMBL document CHEMBL3045545, “Control of chickpea blight disease caused by Didymella rabiei by mixing resistance inducer and contact fungicide” (2011).

For experiment [1], the system named is Ascochyta rabiei. The experiment in a line: Antifungal activity against Didymella rabiei in chickpea plant assessed as dry grain yield at 50 ppm compound two sprays 15 intervals (Control = 0.268 t/ha). It counts as functional.
Experiment [2] deals with Ascochyta rabiei. The experiment in a line: Antifungal activity against Didymella rabiei inoculated in chickpea plant assessed as reduction in chickpea blight disease at 100 ppm compound single spray 24 to 72 hr before inoculation by green house experiment. It counts as functional, organism-based.
The subject of experiment [3] is Ascochyta rabiei. The experiment in a line: Antifungal activity against Didymella rabiei in chickpea plant assessed as dry grain yield at 50 ppm compound treated by seeds soaking for 24 hr (Control = 0.268 t/ha). It counts as functional.
The subject of experiment [4] is Ascochyta rabiei. The experiment in a line: Antifungal activity against Didymella rabiei in chickpea plant assessed as chickpea blight disease severity at 50 ppm compound three sprays 15 intervals (Control = 45.8%). It counts as functional.
Experiment [5] relates to Ascochyta rabiei. The experiment in a line: Antifungal activity against Didymella rabiei in chickpea plant assessed as chickpea blight disease severity at 50 ppm compound two sprays 15 intervals (Control = 45.8%). It counts as functional.
The subject of experiment [6] is Ascochyta rabiei. The experiment in a line: Antifungal activity against Didymella rabiei isolate ARL1 inoculated in chickpea seedlings assessed as reduction in chickpea blight disease at 100 ppm compound treated 24 hr prior seedlings by green house experiment. It counts as functional, organism-based.
Experiment [7] deals with Ascochyta rabiei. The experiment in a line: Antifungal activity against Didymella rabiei in chickpea plant assessed as dry grain yield at 50 ppm compound three sprays 15 intervals (Control = 0.268 t/ha). It counts as functional.
The test system of experiment [8] is Ascochyta rabiei. The experiment in a line: Antifungal activity against Didymella rabiei inoculated in chickpea plant assessed as reduction in chickpea blight disease at 100 ppm compound single spray 96 or 120 hr before inoculation by green house experiment. It counts as functional, organism-based.
For experiment [9], the system named is Ascochyta rabiei. The experiment in a line: Antifungal activity against Didymella rabiei in chickpea plant assessed as dry grain yield at 50 ppm compound single spray 15 intervals (Control = 0.268 t/ha). It counts as functional.
Experiment [10] relates to Ascochyta rabiei. The experiment in a line: Antifungal activity against Didymella rabiei inoculated in chickpea plant assessed as reduction in chickpea blight disease at 100 ppm compound single spray 24 hr before inoculation by green house experiment. It counts as functional.
Experiment [11] deals with Ascochyta rabiei. The experiment in a line: Antifungal activity against Didymella rabiei in chickpea plant assessed as chickpea blight disease severity at 50 ppm compound single spray 15 intervals (Control = 45.8%). It counts as functional.
Experiment [12] has as its system Ascochyta rabiei. The experiment in a line: Antifungal activity against Didymella rabiei in chickpea plant assessed as chickpea blight disease severity at 50 ppm compound treated by seeds soaking for 24 hr (Control = 45.8%). It counts as functional.

The source made the active and inactive calls. The calls are words filed in the database; no cut-off is given here.

Consider `CSC(=O)c1cccc2nnsc12` [ACIBENZOLAR-S-METHYL], for which the Crop_yield is 1.066 tons/ha in [1], 0.456 tons/ha in experiment [3], 0.922 tons/ha in experiment [7] and 0.52 tons/ha in experiment [9]. Besides, the inhibition result in experiment [2] and in experiment [6] was “Active” throughout. In addition, the Activity in experiment [4] was found to be 4.2%; in [5] it was 7.5%; in experiment [11], 17.5%; in experiment [12], 22.5%. Also, the inhibition entry in [8] is “inactive”. Also, the inhibition at 100 ppm in [10] came to 72.4%.

As usually defined, the inhibition is the percentage by which the read-out fell short of the control.
